For assay [1], the target named is T1, rat URAT1 r-N35S/Y365F/M481I (Rattus norvegicus, UniProt Q3ZAV1, M481I/N35S/Y365F).
T1 construct: expressed in transfected cells; host or cells: HEK-293T
T1 sequence (Q3ZAV1 1-553 N35S/Y365F/M481I): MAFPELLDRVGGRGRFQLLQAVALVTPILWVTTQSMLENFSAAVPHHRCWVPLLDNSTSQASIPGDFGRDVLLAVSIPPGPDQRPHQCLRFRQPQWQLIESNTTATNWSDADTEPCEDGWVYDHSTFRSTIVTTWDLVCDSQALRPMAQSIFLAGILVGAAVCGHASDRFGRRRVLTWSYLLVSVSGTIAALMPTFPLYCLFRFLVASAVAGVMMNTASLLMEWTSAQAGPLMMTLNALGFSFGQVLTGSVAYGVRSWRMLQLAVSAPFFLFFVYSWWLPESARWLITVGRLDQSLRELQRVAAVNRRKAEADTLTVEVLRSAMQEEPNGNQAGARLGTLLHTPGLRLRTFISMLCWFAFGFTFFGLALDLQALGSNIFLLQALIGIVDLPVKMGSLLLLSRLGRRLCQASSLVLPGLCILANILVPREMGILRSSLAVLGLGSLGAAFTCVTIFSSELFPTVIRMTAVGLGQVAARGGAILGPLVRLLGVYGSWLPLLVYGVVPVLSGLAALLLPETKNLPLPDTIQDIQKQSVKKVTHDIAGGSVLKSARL
The assay is described as follows: URAT1 activity assay, r-N35S/Y365F/M481I. The format is cell-based. The source says:
(§1) Human URAT1 (GenBank BC053348.1, Homo sapiens SLC22A12), rat URAT1 (NCBI NM_001034943.1, Rattus norvegicus Slc22a12) and human OAT4 (NCBI NM_018484.2, Homo sapiens SLC22A11) genes were purchased from Origene Technologies, Inc. and subcloned into pCMV6/neo using NotI. Where indicated, controls transfections used pCMV6/neo. Mutants were produced by site-directed mutagenesis using the QuikChange Lightning Multi Site-Directed Mutagenesis Kit (Agilent Technologies). […] Mutagenic primer sequences are provided in ref. [15] and mutagenic primer sequences for previously unreported mutants shown in Supplementary Table 1. All constructs used in this study were untagged. Human OAT1 was purchased from Fisher Scientific (catalog # MHS1010–7508183 in pSPORT6, NCBI NM_153276.2, Homo sapiens SLC22A6).
(§2) HEK-293T cells were maintained in DMEM/high glucose/L-glutamine/HEPES supplemented with 1 mM sodium pyruvate (Life Technologies) and 10% FBS (PAA Laboratories) at 37 °C in 5% CO2. To express URAT1, OAT4 or OAT1, plasmids were reverse transfected into HEK-293T cells. DNA (10 µg) was mixed with 30 µl of DreamFect Gold (Boca Scientific) in 2 ml OptiMem (Life Technologies). After 20 minutes, 18 ml of media containing 2 × 10^7 cells in suspension was added and mixed, and 200 µl per well were plated onto white clear-bottomed poly-D-lysine coated 96-well plates (BD Biosciences). The cells were assayed the following day.
URAT1 and OAT4 activity assays were performed in assay buffer consisting of 25 mM MES pH 5.5 (from a 1 M MES solution [Sigma] adjusted to pH 5.5 with sodium hydroxide), 125 mM sodium gluconate, 4.8 mM potassium gluconate, 1.2 mM monobasic potassium phosphate, 1.2 mM magnesium sulfate, 1.3 mM calcium gluconate and 5.6 mM glucose. URAT1 inhibitors were serially diluted into assay buffer and added to the cells for 5 minutes prior to addition of substrate. URAT1-expressing cells were incubated with 100 µM ^14C-uric acid for 10 minutes and OAT4-expressing cells were incubated with 20 µM carboxyfluorescein (Life Technologies, Inc.) for 5 minutes. […] Each treatment was measured in triplicate.

The target of assay [2] is T2, human URAT1 h-L31V (Homo sapiens, UniProt Q96S37, L31V).
T2 construct: expressed in transfected cells; host or cells: HEK-293T
The assay is described as follows: URAT1 activity assay, h-L31V. Format: cell-based. Conditions: TM1 point mutant, read-out: Verinurad affinity (IC50).
Source text: as §1
(§3) HEK-293T cells were maintained in DMEM/high glucose/L-glutamine/HEPES supplemented with 1 mM sodium pyruvate (Life Technologies) and 10% FBS (PAA Laboratories) at 37 °C in 5% CO2. […]
(§4) URAT1 and OAT4 activity assays were performed in assay buffer consisting of 25 mM MES pH 5.5 (from a 1 M MES solution [Sigma] adjusted to pH 5.5 with sodium hydroxide), 125 mM sodium gluconate, 4.8 mM potassium gluconate, 1.2 mM monobasic potassium phosphate, 1.2 mM magnesium sulfate, 1.3 mM calcium gluconate and 5.6 mM glucose. […] Each treatment was measured in triplicate.

Assay [3] addresses rat URAT1 r-T26V (Rattus norvegicus, UniProt Q3ZAV1, T26V). The assay is described as follows: cell-based.
Source text: as §1, §2
(§5) URAT1 and OAT4 activity assays were performed in assay buffer consisting of 25 mM MES pH 5.5 (from a 1 M MES solution [Sigma] adjusted to pH 5.5 with sodium hydroxide), 125 mM sodium gluconate, 4.8 mM potassium gluconate, 1.2 mM monobasic potassium phosphate, 1.2 mM magnesium sulfate, 1.3 mM calcium gluconate and 5.6 mM glucose. URAT1 inhibitors were serially diluted into assay buffer and added to the cells for 5 minutes prior to addition of substrate. URAT1-expressing cells were incubated with 100 µM ^14C-uric acid for 10 minutes and OAT4-expressing cells were incubated with 20 µM carboxyfluorescein (Life Technologies, Inc.) for 5 minutes. Cells were then washed three times in 25 mM MES pH 5.5/125 mM sodium gluconate, and solubilized in Ultima Gold (Perkin Elmer) prior to liquid scintillation counting. Each treatment was measured in triplicate.

For assay [4], the target named is rat URAT1 r-V22M (Rattus norvegicus, UniProt Q3ZAV1, V22M). The assay is described as follows: cell-based.
Source text: as §1, §2, §5

Assay [5] addresses rat URAT1 r-N35S/M481I (Rattus norvegicus, UniProt Q3ZAV1, M481I/N35S). The assay is described as follows: cell-based.
Source text: as §1, §2, §5

Assay [6] deals with rat URAT1 r-P27S (Rattus norvegicus, UniProt Q3ZAV1, P27S). The assay is described as follows: cell-based.
Source text: as §1, §2, §5

In assay [7] the target is rat URAT1 r-A21T (Rattus norvegicus, UniProt Q3ZAV1, A21T). The assay is described as follows: cell-based.
Source text: as §1, §2, §5

For assay [8], the target named is rat URAT1 r-L29M (Rattus norvegicus, UniProt Q3ZAV1, L29M). The assay is described as follows: cell-based.
Source text: as §1, §2, §5

Assay [9] concerns the target rat URAT1 r-N35S/Y365F (Rattus norvegicus, UniProt Q3ZAV1, N35S/Y365F). The assay is described as follows: cell-based.
Source text: as §1, §2, §5

In assay [10] the target is T3, human URAT1 h-S27P (Homo sapiens, UniProt Q96S37, S27P).
T3 construct: expressed in transfected cells; host or cells: HEK-293T
The assay is described as follows: URAT1 activity assay, h-S27P. Format: cell-based.
Source text: as §1, §3, §4

The target of assay [11] is T4, human URAT1 h-F241Y (Homo sapiens, UniProt Q96S37, F241Y).
T4 construct: expressed in transfected cells; host or cells: HEK-293T
T4 sequence (Q96S37 1-553 F241Y): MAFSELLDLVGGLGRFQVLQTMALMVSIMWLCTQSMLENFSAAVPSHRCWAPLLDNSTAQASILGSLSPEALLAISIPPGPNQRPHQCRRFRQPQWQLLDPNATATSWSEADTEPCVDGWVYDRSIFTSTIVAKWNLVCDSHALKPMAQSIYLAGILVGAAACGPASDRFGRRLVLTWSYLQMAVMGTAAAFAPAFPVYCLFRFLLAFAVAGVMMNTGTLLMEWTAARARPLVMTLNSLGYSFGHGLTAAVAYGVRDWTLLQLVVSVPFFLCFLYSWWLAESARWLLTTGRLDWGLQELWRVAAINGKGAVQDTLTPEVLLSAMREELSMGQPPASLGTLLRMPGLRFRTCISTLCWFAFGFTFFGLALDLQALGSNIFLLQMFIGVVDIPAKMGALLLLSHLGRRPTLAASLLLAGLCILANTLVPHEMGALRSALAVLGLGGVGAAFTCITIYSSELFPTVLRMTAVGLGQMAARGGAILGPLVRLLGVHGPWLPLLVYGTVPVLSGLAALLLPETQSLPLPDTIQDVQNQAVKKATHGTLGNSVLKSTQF
The assay is described as follows: URAT1 activity assay, h-F241Y. Format: cell-based.
Source text: as §1, §2, §5

T3 sequence (Q96S37 whole entry S27P): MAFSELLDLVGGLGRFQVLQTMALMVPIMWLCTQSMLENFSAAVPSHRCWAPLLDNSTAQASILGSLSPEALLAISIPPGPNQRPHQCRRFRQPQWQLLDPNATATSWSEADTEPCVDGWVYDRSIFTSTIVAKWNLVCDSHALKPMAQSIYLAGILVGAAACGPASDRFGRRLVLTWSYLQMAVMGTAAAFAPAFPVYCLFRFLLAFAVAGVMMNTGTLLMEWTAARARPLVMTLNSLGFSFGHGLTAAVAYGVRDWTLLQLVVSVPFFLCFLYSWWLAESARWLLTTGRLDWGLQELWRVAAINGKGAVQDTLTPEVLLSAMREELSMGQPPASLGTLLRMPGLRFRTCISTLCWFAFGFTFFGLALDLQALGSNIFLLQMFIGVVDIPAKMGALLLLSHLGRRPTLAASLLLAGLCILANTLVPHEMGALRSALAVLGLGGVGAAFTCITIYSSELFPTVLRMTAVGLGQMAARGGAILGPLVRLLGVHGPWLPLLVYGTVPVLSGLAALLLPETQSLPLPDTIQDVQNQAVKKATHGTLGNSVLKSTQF
rat URAT1 r-P27S, sequence (Q3ZAV1 whole entry P27S): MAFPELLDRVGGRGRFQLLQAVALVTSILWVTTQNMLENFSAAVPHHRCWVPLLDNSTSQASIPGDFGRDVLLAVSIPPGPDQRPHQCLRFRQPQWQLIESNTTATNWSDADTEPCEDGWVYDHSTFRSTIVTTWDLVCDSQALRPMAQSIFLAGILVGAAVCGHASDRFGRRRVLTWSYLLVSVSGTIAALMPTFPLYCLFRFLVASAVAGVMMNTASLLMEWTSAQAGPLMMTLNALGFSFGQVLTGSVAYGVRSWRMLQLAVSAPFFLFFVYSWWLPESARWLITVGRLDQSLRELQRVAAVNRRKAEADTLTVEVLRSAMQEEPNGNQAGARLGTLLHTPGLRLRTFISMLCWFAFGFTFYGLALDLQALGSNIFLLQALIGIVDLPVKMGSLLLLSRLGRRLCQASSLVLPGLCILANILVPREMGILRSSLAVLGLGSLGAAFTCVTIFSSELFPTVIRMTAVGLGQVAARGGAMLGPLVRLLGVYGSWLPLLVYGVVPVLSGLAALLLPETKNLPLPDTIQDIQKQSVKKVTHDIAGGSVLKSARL
rat URAT1 r-T26V, sequence (Q3ZAV1 whole entry T26V): as the sequence (Q3ZAV1 whole entry P27S) above, with T26V, S27P counted along it
rat URAT1 r-A21T, sequence (Q3ZAV1 whole entry A21T): as the sequence (Q3ZAV1 whole entry P27S) above, with A21T, S27P counted along it
rat URAT1 r-N35S/M481I, sequence (Q3ZAV1 whole entry N35S/M481I): as the sequence (Q3ZAV1 whole entry P27S) above, with S27P, N35S, M481I counted along it
rat URAT1 r-L29M, sequence (Q3ZAV1 whole entry L29M): as the sequence (Q3ZAV1 whole entry P27S) above, with S27P, L29M counted along it
rat URAT1 r-V22M, sequence (Q3ZAV1 whole entry V22M): as the sequence (Q3ZAV1 whole entry P27S) above, with V22M, S27P counted along it
rat URAT1 r-N35S/Y365F, sequence (Q3ZAV1 whole entry N35S/Y365F): as the sequence (Q3ZAV1 whole entry P27S) above, with S27P, N35S, Y365F counted along it
T2 sequence (Q96S37 whole entry L31V): as the sequence (Q96S37 whole entry S27P) above, with P27S, L31V counted along it

Regarding `CC(C)(Sc1ccncc1-c1ccc(C#N)c2ccccc12)C(=O)O` [Verinurad, 2-((3-(4-cyanonaphthalen-1-yl)pyrindin-4-yl)thio)-2-methylpropanoic acid], the “fold higher affinity compared to rat URAT1” value in assay [1] (r-N35S/Y365F/M481I) is on record as ~300 fold. Also, the “fold lower affinity compared to human URAT1” value in assay [1] (r-N35S/Y365F/M481I) came to 6 fold. The IC50 turned out to be 0.14 µM in assay [1] (r-N35S/Y365F/M481I triple point mutant); 0.031 ± 0.01 µM in assay [2]; 39 ± 5.5 µM in [3]; 43 ± 2.5 µM in assay [4]; 4.43 µM in assay [5]; 27 ± 3.4 µM in assay [6]. Also, the IC50 in assay [7] is 36 ± 5.2 µM; in [8], 29 ± 3.3 µM; in [9], 0.47 µM; in assay [10] (h-S27P, TM1 point mutant, read-out: Verinurad affinity (IC50)), 0.039 ± 0.009 µM; in assay [11] (h-F241Y binding site point mutant) it was 0.12 µM. The “fold increase in affinity” value in [6] (printed r-S27P, vs rat URAT1) turned out to be 1.5 fold. In [10] (h-S27P vs human URAT1), the “fold decrease in affinity” value worked out at 1.6 fold. Also, the “fold reduced affinity compared to human URAT1” value in assay [11] (h-F241Y) is 5 fold.

As usually defined, the IC50 is the midpoint of a concentration-inhibition curve.

The values above are taken from publication PMC5429603, “Discovery and characterization of verinurad, a potent and specific inhibitor of URAT1 for the treatment of hyperuricemia and gout” (Scientific Reports, 2017).
